# PMC10266688 (PLOS ONE, 2023)
# Columns and labels:
# [1] = Plasma stability, mouse EDTA plasma; format: in vitro ADME; settings: for % Drug Remaining, Plasma (Mouse EDTA): 10 μM, 37°C
# [2] = system: proteasome (4UbFL reporter); experiment: 4UbFL reporter in ES2-4UbFL tumor and leg muscle of nude mice; format: in vivo, mouse; settings: single IP dose Up284 20mg/kg or bortezomib 0.75 mg/kg, 4 h and 24 h
# Procedure: (§1) A-C) Female nude mice were inoculated IP with ES2-luc cells, a human ovarian cancer line expressing luciferase. […] The IP tumor tissue and electroporated normal muscle tissue, being spatially distinct, were identified with separate regions of interest (ROI) after simultaneous imaging with IVIS.
# Briefly mice were inoculated IP with ES2 cells stably expressing 4UbFL. After 48 h, the mice were injected with luciferin, imaged and then randomized into 3 groups (n = 5/group). Next, leg muscle of each mouse was electroporated with 4UbFL plasmid (considered as normal tissue). After 48 h (i.e. day 4) the mice were re-imaged and basal bioluminescence (0 h) was separately measured in the leg muscle and peritoneal ROIs.
# [3] = Repeat IP dosing tolerability in Balb/c and C57BL/6 mice; format: in vivo; settings: female Balb/c and C57BL/6 mice
# [4] = system: cellular DUB enzymes; experiment: Total cellular DUB activity, Ub-AMC cleavage, SKOV3 cells; settings: 5 μM, 1 h
# [5] = system: peritoneal/ovarian tumor (shp53, AKT, c-Myc); experiment: Spontaneous genetically-engineered mouse model (GEMM) of ovarian cancer; format: in vivo; settings: C57BL/6, 20mg/kg IP every 3 days for 6 weeks
# Procedure: To induce IP tumor formation in immunocompetent mice, oncogenes (shp53, AKT, c-Myc), luciferase and the Sleeping Beauty (SB) transposase (10 μg/plasmid) were diluted in 500 μL of PBS and injected IP into female C57BL/6 mice. The mice were anesthetized by intramuscular injection of ketamine. The plasmid-injected mice were electroporated (EP) by the BTX ECM 830 square wave EP generator (BTX) (5 pulses, 200 V for 100 ms/pulse, 100 ms intervals between each pulse), the caliper electrode (BTX) was held on the waist of mouse. The mice were followed by IVIS imaging weekly for tracking tumor growth. The mice were sacrificed when the bioluminescence signal reached 10^9 photons/sec/cm^2/sr, or had enlarged abdomens due to the production of ascites, or had health conditions and/or criteria under which early euthanasia was required by the protocol (see above). To track peritoneal tumor growth, bioluminescence imaging was performed by the IVIS spectrum2000 (PerkinElmer) as the plasmid expressing SB transposase also produces luciferase. Briefly, the mice were injected IP with D-luciferin (GoldBio). After 10 min, the mice were anesthetized with isoflurane, and imaged by the IVIS Spectrum under the auto exposure mode. Bioluminescence in the peritoneal region was quantified as total photon counts/sec/cm^2/sr using Living Image 3.0 Software (Perkin Elmer).
# as §1
# GEMM better mimic the spontaneous development of cancers in an immune competent host than transplantable tumor lines. Twenty female C57BL/6 mice were co-injected IP with sleeping beauty vector and plasmids expressing carrying shp53, AKT, c-Myc and firefly luciferase genes, followed by electroporation (EP) to deliver these plasmid DNA into the peritoneal cavity cells wherein they integrate randomly into their genome. […]
# [6] = system: proteasome (4UbFL reporter); experiment: In vivo 4UbFL proteasome reporter in electroporated leg muscle, CD1 mice; design: species or system mouse
# Procedure: A patch of CD1 mouse leg was shaved of hair and 10 μg 4Ub-FL plasmid in 20 μL of PBS was injected into the quadriceps femoralis muscle followed immediately by injection of the 2 Needle Array to 5 mm depth encompassing the injection site and square wave EP (ElectroSquarePorator 833, BTX-2 Needle array 5mm gap, Harvard apparatus) delivered as eight pulses at 106V for 20 ms with 200 ms intervals. One day post-EP, mice were anesthetized with isoflurane, injected IP with luciferin (0.3 mg in 100 μL water) and optical imaging was performed to determine basal level luciferase expression. Images were acquired for 10 min with a Xenogen IVIS 200 (Caliper, Hopkinton, MA). Equally sized areas were analyzed using Living Image 2.20 software.
# Two days later, luciferin was injected IP and the baseline enzymic activity of luciferase in the transduced muscle tissue was visualized as bioluminescence within this region of interest (ROI) using an IVIS imager. […] After 4h, 24h and 48h the mice were again injected with luciferin, imaged and bioluminescence was quantified (Fig 5B).
# A) ES2 cells stably transduced with the 4UbFL reporter plasmid were treated with compounds at indicated doses for 4 h. The cells were then washed, lysed and their luminescence measured by a luminometer after addition of luciferin. B) Female CD1 mice electroporated with 4UbFL plasmid in their leg muscle. After 48 h, the mice were injected with luciferin, imaged by IVIS for their basal bioluminescence and randomized into two groups of five. […] D) Up284 tissue distribution. […] Up284 levels in tissue samples were analyzed by HPLC. E) Up284 pharmacokinetics. […] Blood was collected at indicated time points thereafter and analyzed for Up284 levels by HPLC.
# [7] = Microsomal stability, human liver microsomes; format: in vitro ADME; settings: for % Drug Remaining NADPH Neg, Human Liver Microsomes / % Drug Remaining NADPH Pos, Human Liver Microsomes: 10 μM
# Procedure: (§2) An incubation mixture with, and without NADPH-generating system, as well as a neat solution prepared without microsomes and NADPH-generating system was used. […] All reactions were initiated with the addition of Up284. Incubations were performed in glass tubes maintained at 37°C in a shaker bath. At 0, 30, and 60 minutes, 10 μL samples were withdrawn from the reaction mixture, and 0.5 mL of acetonitrile containing internal standard was added to each. Samples were vortex-mixed and subjected to centrifugation for 5 min at 1430 x g. A 10 μL aliquot of the supernatant was injected onto the LC-MS/MS instrument for qualitative analysis using a temperature-controlled autosampling device operating at 5°C.
# [8] = Neat solution stability; format: physicochemical; settings: 10 μM, 37°C
# Procedure: as §2
# [9] = system: ES2 cells; experiment: Reactive oxygen species, Amplex Red/HRP; settings: 12 h
smiles,measurement,setting,value
N#Cc1ccc(/C=C2/C(=O)/C(=C/c3ccc(C#N)cc3)C23CCNCC3)cc1 [Up284],"% Drug Remaining, Plasma (Mouse EDTA)",[1]; 0 min,100%
same,"% Drug Remaining, Plasma (Mouse EDTA)",[1]; 30 min,84%
same,"% Drug Remaining, Plasma (Mouse EDTA)",[1]; 60 min,94%
same,degradation in murine plasma,[1]; after incubating for 1 hour,< 10%
same,4UbFL bioluminescence signal in muscle tissue vs tumor,[2],similarly enhanced the bioluminescence signal
same,tolerability of 60 mg/kg IP every third day,[3],toxic
same,MTD,"[3]; mouse, in vivo, ip, read-out: MTD after 3 doses, IP delivery every third day",40 mg/kg
same,total lysate DUB enzymatic activity (Ub-AMC),[4],No reduction
same,ascites,[5],did not develop appreciable ascites
same,GEMM tumor burden vs vehicle,[5]; p = 0.002,significantly reduced tumor burden
same,survival vs vehicle,[5]; p = 0.06,trend for prolonged survival
same,"4UbFL reporter stabilization in muscle, PO",[6]; Up284 PO once 40mg/kg vs ixazomib 10 mg/kg,better stabilized the reporter than ixazomib
same,duration of enhanced 4UbFL bioluminescence,[6]; single IP dose 40 mg/kg,> 48 h
same,4UbFL bioluminescence in leg muscle,"[6]; single IP dose 40 mg/kg, 4h, 24h and 48h",significantly enhanced bioluminescence levels
same,"additional degradation in the presence of NADPH, human liver microsomes",[7],~ 10%
same,degradation in human liver microsomes without NADPH,[7],~ 50%
same,"% Drug Remaining NADPH Neg, Human Liver Microsomes",[7]; 0 min,100%
same,"% Drug Remaining NADPH Pos, Human Liver Microsomes",[7]; 0 min,100%
same,"% Drug Remaining NADPH Neg, Human Liver Microsomes",[7]; 30 min,57%
same,"% Drug Remaining NADPH Pos, Human Liver Microsomes",[7]; 30 min,43%
same,"% Drug Remaining NADPH Neg, Human Liver Microsomes",[7]; 60 min,52%
same,"% Drug Remaining NADPH Pos, Human Liver Microsomes",[7]; 60 min,43%
same,"% Drug Remaining, Neat Solution",[8]; 0 min,100%
same,"% Drug Remaining, Neat Solution",[8]; 30 min,86%
same,"% Drug Remaining, Neat Solution",[8]; 60 min,78%
same,reactive oxygen species,[9],elevated levels of reactive oxygen species
